*1 amine or outer side, *2 acyl side, *3 side chain or, on linkers, in order; H or OH if unused. Where a SMILES comes first, the peptide text is derived from it. Bridges are numbered along the chain shown (N, C = ends). [ ]: non-standard residue; d: D form. Phe(3,4,5-F3) = N[C@@H](Cc1cc(F)c(F)c(F)c1)C(=O)O; d(cisHyp) = O=C(O)[C@H]1C[C@@H](O)CN1; NMeF = CN[C@@H](Cc1ccccc1)C(=O)O; X1 = O=C([C@H]1COCCN1[*:1])[*:2]; NMeNle = CCCC[C@H](NC)C(=O)O; hSer = N[C@@H](CCO)C(=O)O; Orn = NCCC[C@H](N)C(=O)O
target: T1, Human PD-L1/PD-1 (Homo sapiens, UniProt Q9NZQ7); test: HTRF Human PD-L1/PD-1 binding assay (PD-1-Ig/PD-L1-His); settings: PD-L1-His 10 nM, PD-1-Ig 20 nM; class symbol; read-out: HTRF Human PD-L1/PD-1 Binding Assay IC50 Range
T1 construct: TVMV protease cleavage site (C); made in house; host or cells: HEK293T cells
T1 sequence (Q9NZQ7 with tags, fused parts or gaps): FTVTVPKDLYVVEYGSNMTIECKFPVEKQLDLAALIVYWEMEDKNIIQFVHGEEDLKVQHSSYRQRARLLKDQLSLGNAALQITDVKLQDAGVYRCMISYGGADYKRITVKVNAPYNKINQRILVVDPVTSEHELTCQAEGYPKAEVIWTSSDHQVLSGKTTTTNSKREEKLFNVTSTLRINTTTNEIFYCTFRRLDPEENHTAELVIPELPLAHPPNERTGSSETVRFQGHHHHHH
In short: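 HTRF competition using HEK293T-expressed human PD-1(25-167)-Ig at 20 nM and PD-L1(18-239)-His at 10 nM, compound incubated first with PD-L1 for 15 min, then with PD-1 for 15 min. Signal read as 665/620 nm ratio 30 min after adding Eu anti-Ig and APC anti-His antibodies.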

IC50 | SMILES
1 to 9.9 nM | CCCC[C@H]1C(=O)N2C[C@H](O)C[C@@H]2C(=O)N[C@@H](CC(=O)O)C(=O)N[C@@H](C(C)C)C(=O)N(C)[C@@H](Cc2ccccc2)C(=O)N[C@@H](CCC(=O)O)C(=O)N2CCOC[C@@H]2C(=O)N[C@@H](Cc2c[nH]c3ccccc23)C(=O)N[C@@H](Cc2ccc(O)cc2)C(=O)N[C@@H](CCOC)C(=O)N[C@H](C(=O)NCC(N)=O)CSCC(=O)N[C@@H](Cc2cc(F)c(F)c(F)c2)C(=O)N(C)[C@@H](Cc2ccccc2)C(=O)N1C [Example 10178] ({CH2CO}-[Phe(3,4,5-F3)][NMeF][NMeNle][d(cisHyp)]DV[NMeF]E[X1]WY[hSer](Me)CG-NH2; thioether N-13)
10 to 99.9 nM | CCCC[C@H]1C(=O)N2C[C@H](O)C[C@@H]2C(=O)N[C@@H](CC(=O)O)C(=O)N[C@@H](C(C)C)C(=O)N(C)[C@@H](Cc2ccccc2)C(=O)N[C@@H](Cc2ccc(O)cc2)C(=O)N2CCOC[C@@H]2C(=O)N[C@@H](Cc2c[nH]c3ccccc23)C(=O)N[C@@H](Cc2ccc(OC)cc2)C(=O)N[C@@H](CCOC)C(=O)N[C@H](C(=O)NCC(N)=O)CSCC(=O)N[C@@H](Cc2cc(F)c(F)c(F)c2)C(=O)N(C)[C@@H](Cc2ccccc2)C(=O)N1C [Example 10179] ({CH2CO}-[Phe(3,4,5-F3)][NMeF][NMeNle][d(cisHyp)]DV[NMeF]Y[X1]WY(Me)[hSer](Me)CG-NH2; thioether N-13)
10 to 99.9 nM | CCCC[C@H]1C(=O)N2C[C@H](O)C[C@@H]2C(=O)N[C@@H](CC(=O)O)C(=O)N[C@@H](C(C)C)C(=O)N(C)[C@@H](Cc2ccccc2)C(=O)N[C@@H](Cc2ccc(OC)cc2)C(=O)N2CCOC[C@@H]2C(=O)N[C@@H](Cc2c[nH]c3ccccc23)C(=O)N[C@@H](Cc2ccc(O)cc2)C(=O)N[C@@H](CCOC)C(=O)N[C@H](C(=O)NCC(N)=O)CSCC(=O)N[C@@H](Cc2cc(F)c(F)c(F)c2)C(=O)N(C)[C@@H](Cc2ccccc2)C(=O)N1C [Example 10180] ({CH2CO}-[Phe(3,4,5-F3)][NMeF][NMeNle][d(cisHyp)]DV[NMeF]Y(Me)[X1]WY[hSer](Me)CG-NH2; thioether N-13)
1 to 9.9 nM | CCCC[C@H]1C(=O)N2CCC[C@@H]2C(=O)N[C@@H](CC(=O)O)C(=O)N[C@@H](C(C)C)C(=O)N(C)[C@@H](Cc2ccccc2)C(=O)N[C@@H](CCC(=O)O)C(=O)N2C[C@H](O)C[C@@H]2C(=O)N[C@@H](Cc2c[nH]c3ccccc23)C(=O)N[C@@H](Cc2ccc(O)cc2)C(=O)N[C@@H](CCOC)C(=O)N[C@H](C(=O)NCC(N)=O)CSCC(=O)N[C@@H](Cc2cc(F)c(F)c(F)c2)C(=O)N(C)[C@@H](Cc2ccccc2)C(=O)N1C [Example 10188] ({CH2CO}-[Phe(3,4,5-F3)][NMeF][NMeNle][dP]DV[NMeF]E[d(cisHyp)]WY[hSer](Me)CG-NH2; thioether N-13)

Second part, the compound before the results:

SMILES | IC50
CCCC[C@H]1C(=O)N2CCC[C@@H]2C(=O)N[C@@H](CC(=O)O)C(=O)N[C@@H](C(C)C)C(=O)N(C)[C@@H](Cc2ccccc2)C(=O)N[C@@H](Cc2ccc(O)cc2)C(=O)N2C[C@H](O)C[C@@H]2C(=O)N[C@@H](Cc2c[nH]c3ccccc23)C(=O)N[C@@H](Cc2ccc(O)cc2)C(=O)N[C@@H](CCOC)C(=O)N[C@H](C(=O)NCC(N)=O)CSCC(=O)N[C@@H](Cc2cc(F)c(F)c(F)c2)C(=O)N(C)[C@@H](Cc2ccccc2)C(=O)N1C [Example 10181] ({CH2CO}-[Phe(3,4,5-F3)][NMeF][NMeNle][dP]DV[NMeF]Y[d(cisHyp)]WY[hSer](Me)CG-NH2; thioether N-13) | 1 to 9.9 nM
CCCC[C@H]1C(=O)N2CCC[C@@H]2C(=O)N[C@@H](CC(=O)O)C(=O)N[C@@H](C(C)C)C(=O)N(C)[C@@H](Cc2ccccc2)C(=O)N[C@@H](CCCN)C(=O)N2C[C@H](O)C[C@@H]2C(=O)N[C@@H](Cc2c[nH]c3ccccc23)C(=O)N[C@@H](Cc2ccc(O)cc2)C(=O)N[C@@H](CCOC)C(=O)N[C@H](C(=O)NCC(N)=O)CSCC(=O)N[C@@H](Cc2cc(F)c(F)c(F)c2)C(=O)N(C)[C@@H](Cc2ccccc2)C(=O)N1C [Example 10182] ({CH2CO}-[Phe(3,4,5-F3)][NMeF][NMeNle][dP]DV[NMeF][Orn][d(cisHyp)]WY[hSer](Me)CG-NH2; thioether N-13) | 1 to 9.9 nM
CCCC[C@H]1C(=O)N2CCOC[C@@H]2C(=O)N[C@@H](CC(=O)O)C(=O)N[C@@H](C(C)C)C(=O)N(C)[C@@H](Cc2ccccc2)C(=O)N[C@@H](Cc2ccc(O)cc2)C(=O)N2C[C@H](O)C[C@@H]2C(=O)N[C@@H](Cc2c[nH]c3ccccc23)C(=O)N[C@@H](Cc2ccc(O)cc2)C(=O)N[C@@H](CCOC)C(=O)N[C@H](C(=O)NCC(N)=O)CSCC(=O)N[C@@H](Cc2cc(F)c(F)c(F)c2)C(=O)N(C)[C@@H](Cc2ccccc2)C(=O)N1C [Example 10183] ({CH2CO}-[Phe(3,4,5-F3)][NMeF][NMeNle][X1]DV[NMeF]Y[d(cisHyp)]WY[hSer](Me)CG-NH2; thioether N-13) | 10 to 99.9 nM
CCCC[C@H]1C(=O)N2CCOC[C@@H]2C(=O)N[C@@H](CC(=O)O)C(=O)N[C@@H](C(C)C)C(=O)N(C)[C@@H](Cc2ccccc2)C(=O)N[C@@H](CCCN)C(=O)N2C[C@H](O)C[C@@H]2C(=O)N[C@@H](Cc2c[nH]c3ccccc23)C(=O)N[C@@H](Cc2ccc(O)cc2)C(=O)N[C@@H](CCOC)C(=O)N[C@H](C(=O)NCC(N)=O)CSCC(=O)N[C@@H](Cc2cc(F)c(F)c(F)c2)C(=O)N(C)[C@@H](Cc2ccccc2)C(=O)N1C [Example 10184] ({CH2CO}-[Phe(3,4,5-F3)][NMeF][NMeNle][X1]DV[NMeF][Orn][d(cisHyp)]WY[hSer](Me)CG-NH2; thioether N-13) | 10 to 99.9 nM
CCCC[C@H]1C(=O)N2CCOC[C@@H]2C(=O)N[C@@H](CC(=O)O)C(=O)N[C@@H](C(C)C)C(=O)N(C)[C@@H](Cc2ccccc2)C(=O)N[C@@H](Cc2ccc(O)cc2)C(=O)N2CCC[C@@H]2C(=O)N[C@@H](Cc2c[nH]c3ccccc23)C(=O)N[C@@H](Cc2ccc(O)cc2)C(=O)N[C@@H](CCOC)C(=O)N[C@H](C(=O)NCC(N)=O)CSCC(=O)N[C@@H](Cc2cc(F)c(F)c(F)c2)C(=O)N(C)[C@@H](Cc2ccccc2)C(=O)N1C [Example 10185] ({CH2CO}-[Phe(3,4,5-F3)][NMeF][NMeNle][X1]DV[NMeF]Y[dP]WY[hSer](Me)CG-NH2; thioether N-13) | 1 to 9.9 nM
CCCC[C@H]1C(=O)N2C[C@H](O)C[C@@H]2C(=O)N[C@@H](CC(=O)O)C(=O)N[C@@H](C(C)C)C(=O)N(C)[C@@H](Cc2ccccc2)C(=O)N[C@@H](Cc2ccc(O)cc2)C(=O)N2CCC[C@@H]2C(=O)N[C@@H](Cc2c[nH]c3ccccc23)C(=O)N[C@@H](Cc2ccc(O)cc2)C(=O)N[C@@H](CCOC)C(=O)N[C@H](C(=O)NCC(N)=O)CSCC(=O)N[C@@H](Cc2cc(F)c(F)c(F)c2)C(=O)N(C)[C@@H](Cc2ccccc2)C(=O)N1C [Example 10186] ({CH2CO}-[Phe(3,4,5-F3)][NMeF][NMeNle][d(cisHyp)]DV[NMeF]Y[dP]WY[hSer](Me)CG-NH2; thioether N-13) | 10 to 99.9 nM
CCCC[C@H]1C(=O)N2CCC[C@@H]2C(=O)N[C@@H](CC(=O)O)C(=O)N[C@@H](C(C)C)C(=O)N(C)[C@@H](Cc2ccccc2)C(=O)N[C@@H](Cc2ccc(O)cc2)C(=O)N2CCOC[C@@H]2C(=O)N[C@@H](Cc2c[nH]c3ccccc23)C(=O)N[C@@H](Cc2ccc(O)cc2)C(=O)N[C@@H](CCOC)C(=O)N[C@H](C(=O)NCC(N)=O)CSCC(=O)N[C@@H](Cc2cc(F)c(F)c(F)c2)C(=O)N(C)[C@@H](Cc2ccccc2)C(=O)N1C [Example 10187] ({CH2CO}-[Phe(3,4,5-F3)][NMeF][NMeNle][dP]DV[NMeF]Y[X1]WY[hSer](Me)CG-NH2; thioether N-13) | 1 to 9.9 nM
CCCC[C@H]1C(=O)N2CCOC[C@@H]2C(=O)N[C@@H](CC(=O)O)C(=O)N[C@@H](C(C)C)C(=O)N(C)[C@@H](Cc2ccccc2)C(=O)N[C@@H](CCC(=O)O)C(=O)N2C[C@H](O)C[C@@H]2C(=O)N[C@@H](Cc2c[nH]c3ccccc23)C(=O)N[C@@H](Cc2ccc(O)cc2)C(=O)N[C@@H](CCOC)C(=O)N[C@H](C(=O)NCC(N)=O)CSCC(=O)N[C@@H](Cc2cc(F)c(F)c(F)c2)C(=O)N(C)[C@@H](Cc2ccccc2)C(=O)N1C [Example 10189] ({CH2CO}-[Phe(3,4,5-F3)][NMeF][NMeNle][X1]DV[NMeF]E[d(cisHyp)]WY[hSer](Me)CG-NH2; thioether N-13) | 10 to 99.9 nM
CCCC[C@H]1C(=O)N2C[C@H](O)C[C@@H]2C(=O)N[C@@H](CC(=O)O)C(=O)N[C@@H](C(C)C)C(=O)N(C)[C@@H](Cc2ccccc2)C(=O)N[C@@H](CCCN)C(=O)N2CCC[C@@H]2C(=O)N[C@@H](Cc2c[nH]c3ccccc23)C(=O)N[C@@H](Cc2ccc(O)cc2)C(=O)N[C@@H](CCOC)C(=O)N[C@H](C(=O)NCC(N)=O)CSCC(=O)N[C@@H](Cc2cc(F)c(F)c(F)c2)C(=O)N(C)[C@@H](Cc2ccccc2)C(=O)N1C [Example 10191] ({CH2CO}-[Phe(3,4,5-F3)][NMeF][NMeNle][d(cisHyp)]DV[NMeF][Orn][dP]WY[hSer](Me)CG-NH2; thioether N-13) | 1 to 9.9 nM

same assay, conditions: PD-L1-His 10 nM, PD-1-Ig 20 nM; read-out: HTRF Human PD-L1/PD-1 Binding Assay IC50

IC50 | SMILES
8.2 nM | CCCC[C@H]1C(=O)N2CCOC[C@@H]2C(=O)N[C@@H](CC(=O)O)C(=O)N[C@@H](C(C)C)C(=O)N(C)[C@@H](Cc2ccccc2)C(=O)N[C@@H](CCCN)C(=O)N2CCC[C@@H]2C(=O)N[C@@H](Cc2c[nH]c3ccccc23)C(=O)N[C@@H](Cc2ccc(O)cc2)C(=O)N[C@@H](CCOC)C(=O)N[C@H](C(=O)NCC(N)=O)CSCC(=O)N[C@@H](Cc2cc(F)c(F)c(F)c2)C(=O)N(C)[C@@H](Cc2ccccc2)C(=O)N1C [Example 10190] ({CH2CO}-[Phe(3,4,5-F3)][NMeF][NMeNle][X1]DV[NMeF][Orn][dP]WY[hSer](Me)CG-NH2; thioether N-13)
